Patent US9872492B2, “(S)-abscisic acid derivatives for thinning” (Valent BioSciences Corporation, priority 2015, dated 2018)

Tests used:
Type in all cases: in vivo
Rich Lady peach = test: Thinning study on Rich Lady peach (Yakima, Washington), Example 5; settings: for Effect on fruit size (percent fruit 125 count/box or larger), in words / Effect on hand thinning required / fruit drop, in words: 30-300 ppm 3′-methyl-(S)-abscisic acid, 300-1000 ppm S-ABA; for Harvest percent fruit 125 ct/box or larger / Number hand thinned per tree: 0.05% Regulaid surfactant; for Number hand thinned per tree: hand thinned after fruit drop period
Experimental: A study was conducted in Washington (Yakima, Wash.) to determine the effect of S-ABA and 3′-methyl-(S)-abscisic acid on Rich Lady peach thinning. In this study, the initial fruit set prior to treatment was relatively uniform across the treatment groups with the exception of the 300 ppm 3′-methyl-(S)-abscisic acid treatment that had lower fruit set. Following the treatments and a period of time for fruit to drop, the trees were hand-thinned to achieve a desired commercially optimal fruit load.

Gala apple [1] = test: Thinning study of Gala apple (Washington), chemical thinning followed by hand thinning, Example 4; settings: in combination with 6-benzyladenine 28 g/acre; 300 ppm derivative vs 1000 ppm S-ABA
Experimental: Another thinning study of Gala apple was carried out in Washington using a procedure of chemical thinning followed by hand thinning. For chemical thinning, trees (size matched across all the treatment groups) were sprayed with 6-benzyladenine combined with S-ABA or S-ABA derivatives at about the 10 mm fruit diameter timing, as described in Example 1. After a period known as “June drop,” the trees were further thinned by hand to achieve the essentially identical fruit load that was deemed to be the appropriate crop load. This practice will ensure a uni-size apple crop. With this protocol, a lower requirement for the number of fruits removed by hand indicates a more efficacious chemical thinning treatment.

Gala apple [2] = test: Thinning study of Gala apple (Michigan), repeat, Example 3
Source text: In a study carried out in Michigan, 3'-methyl-(S)-abscisic acid was mixed with 6-benzyladenine and compared with a mixture of S-ABA and 6-benzyladenine. 3'-Methyl-(S)-abscisic acid was formulated as a potassium salt in an aqueous. S-ABA was formulated as potassium salt in an aqueous formulation. […]®, a 2% (w/w) 6-benzyladenine formulation, was used as the source of 6-benzyladenine (“6-BA” in the following tables). The treatments were applied to McIntosh apple in fields when the fruit reached 10 mm in size. Six single tree replicates were sprayed with the equivalent of 100 gallons per acre using a motorized backpack mist blower. All the trees in the study were matched to about the same size and initial cropload. The fruit was harvested at maturity and the average fruit weights for each treatment group were recorded. The results are shown in Table 1 (the lower the number of fruits, the greater the thinning effect of the treatment). The thinning study of Gala apple was repeated in Gala in Michigan following the same protocol described in Example 1. In addition to S-ABA and 3'methyl-(S)-ABA, 3'-propargyl-(S)-ABA was also tested for this effect.

Gala apple [3] = test: Thinning study of Gala apple (Michigan), Example 2; settings: in combination with 6-benzyladenine 28 g/acre
Source text: In a study carried out in Michigan, 3'-methyl-(S)-abscisic acid was mixed with 6-benzyladenine and compared with a mixture of S-ABA and 6-benzyladenine. 3'-Methyl-(S)-abscisic acid was formulated as a potassium salt in an aqueous. S-ABA was formulated as potassium salt in an aqueous formulation. […]®, a 2% (w/w) 6-benzyladenine formulation, was used as the source of 6-benzyladenine (“6-BA” in the following tables). The treatments were applied to McIntosh apple in fields when the fruit reached 10 mm in size. Six single tree replicates were sprayed with the equivalent of 100 gallons per acre using a motorized backpack mist blower. All the trees in the study were matched to about the same size and initial cropload. The fruit was harvested at maturity and the average fruit weights for each treatment group were recorded. The results are shown in Table 1 (the lower the number of fruits, the greater the thinning effect of the treatment). A further study was carried out in Michigan, following the same protocol as described in Example 1.

McIntosh apple = test: Thinning study of McIntosh apple (Michigan), Example 1; settings: in combination with 6-benzyladenine 28 g/acre; 100 ppm derivative vs 1000 ppm S-ABA
Source text: In a study carried out in Michigan, 3'-methyl-(S)-abscisic acid was mixed with 6-benzyladenine and compared with a mixture of S-ABA and 6-benzyladenine. 3'-Methyl-(S)-abscisic acid was formulated as a potassium salt in an aqueous. S-ABA was formulated as potassium salt in an aqueous formulation. […]®, a 2% (w/w) 6-benzyladenine formulation, was used as the source of 6-benzyladenine (“6-BA” in the following tables). The treatments were applied to McIntosh apple in fields when the fruit reached 10 mm in size. Six single tree replicates were sprayed with the equivalent of 100 gallons per acre using a motorized backpack mist blower. All the trees in the study were matched to about the same size and initial cropload. The fruit was harvested at maturity and the average fruit weights for each treatment group were recorded. The results are shown in Table 1 (the lower the number of fruits, the greater the thinning effect of the treatment).

| Compound | Effect on fruit size (percent fruit 125 count/box or larger), in words (Rich Lady peach) | Effect on hand thinning required / fruit drop, in words (Rich Lady peach) | Harvest percent fruit 125 ct/box or larger (Rich Lady peach; 30 ppm) | Number hand thinned per tree (Rich Lady peach; 30 ppm) | Harvest percent fruit 125 ct/box or larger (Rich Lady peach; 100 ppm) | Number hand thinned per tree (Rich Lady peach; 100 ppm) | Harvest percent fruit 125 ct/box or larger (Rich Lady peach; 300 ppm) | Number hand thinned per tree (Rich Lady peach; 300 ppm) | Thinning potency relative to S-ABA (in words) (Gala apple [1]) | Thinning potency relative to S-ABA (in words) (Gala apple [2]; in combination with 6-benzyladenine 28 g/acre, 100 ppm derivative vs 300 ppm S-ABA) | Thinning potency relative to S-ABA (in words) (Gala apple [3]) | Thinning potency relative to S-ABA (McIntosh apple) | Thinning effect, in words (Gala apple [2]; in combination with 6-benzyladenine) | Harvest percent fruit 125 ct/box or larger (Rich Lady peach; 1000 ppm) | Number hand thinned per tree (Rich Lady peach; 1000 ppm) |
| --- | --- | --- | --- | --- | --- | --- | --- | --- | --- | --- | --- | --- | --- | --- | --- |
| CC1=C(C)[C@](O)(/C=C/C(C)=C\C(=O)O)C(C)(C)CC1=O [3′-methyl-(S)-ABA, (2Z,4E)-5-((S)-1-hydroxy-2,3,6,6-tetramethyl-4-oxocyclohex-2-en-1-yl)-3-methylpenta-2,4-dienoic acid] | increases with higher use rate | caused fruit drop (thinning) | 25.0% | 61.8 per tree | 30.2% | 59.2 per tree | 37.6% | 45.4 per tree | about three times more potent than S-ABA | about three times more potent than S-ABA | more potent than S-ABA | about 10 times |  |  |  |
| C#CCC1=C(C)[C@](O)(/C=C/C(C)=C\C(=O)O)C(C)(C)CC1=O [3′-propargyl-(S)-ABA, (2Z,4E)-5-((S)-1-hydroxy-2,6,6-trimethyl-4-oxo-3-(prop-2-yn-1-yl)cyclohex-2-en-1-yl)-3-methylpenta-2,4-dienoic acid] |  |  |  |  |  |  |  |  | about three times more potent than S-ABA |  |  |  | caused significant thinning |  |  |
| CC1=CC(=O)CC(C)(C)[C@@]1(O)/C=C/C(C)=C/C(=O)O [S-ABA, (S)-abscisic acid] | small increase in the fruit size in a dose dependent manner | did not reduce the hand thinning required |  |  |  |  | 27.6% | 61.2 per tree |  |  |  |  |  | 29.7% | 67.8 per tree |
